What was measured:
Format in all cases: cell-based
[1] = tested on: K562 cells; assay: Cell growth inhibitory activity assay (CellTiter-Glo), K562 cells; details: Homo sapiens, 72 h, CTG cell viability
Procedure, shortened: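 K562 cells in logarithmic growth were counted, diluted and plated in 96-well plates, with medium-only blanks and a separate T0 plate read by CTG the following day. After overnight incubation, graded compound concentrations were added for 72 h, with 0.5% DMSO wells as growth controls. Luminescence was read on a Biotek cytation3.0, and IC50 came from nonlinear fitting in GraphPad Prism 7.0.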

[2] = biological target: T1, Ba/F3 BCR-ABL1 WT (Homo sapiens, UniProt P00519+P11274); assay: Cell growth inhibitory activity assay (CellTiter-Glo), Ba/F3 BCR-ABL1 WT cells; details: 72 h, CTG cell viability
T1 construct: BCR (N-terminal fusion partner of the oncoprotein); expressed in transfected cells; host or cells: Ba/F3 (lentiviral transduction, monoclonal line)
Procedure, shortened: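 Ba/F3 lines stably transduced by lentivirus with WT or mutant BCR-ABL1, alongside untransduced parental Ba/F3, were seeded and incubated overnight at 37 °C, 5% CO2, then exposed to serially diluted compound for 72 h. Viability was read as ATP by CellTiter-Glo luminescence against a day-of-dosing T0 plate; IC50 from four-parameter nonlinear fit.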

[3] = biological target: T2, Ba/F3 BCR-ABL1 T315I (Homo sapiens, UniProt P00519+P11274, T315I); assay: Cell growth inhibitory activity assay (CellTiter-Glo), Ba/F3 BCR-ABL1 T315I cells; details: 72 h, CTG cell viability
T2 construct: BCR (N-terminal fusion partner of the oncoprotein); expressed in transfected cells; host or cells: Ba/F3 (lentiviral transduction, monoclonal line)
Procedure, shortened: (§1)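 IC50 values come from nonlinear fitting of % inhibition against log concentration, with viability taken as ATP content by CellTiter-Glo. Parental Ba/F3 or Ba/F3 monoclonal lines expressing lentivirally introduced mutant BCR-ABL1 were dosed for 72 h; controls included 0.5% DMSO wells and a T0 plate.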

[4] = tested on: Ba/F3 parental cells; assay: Cell growth inhibitory activity assay (CellTiter-Glo), Ba/F3 parental cells; details: Mus musculus, BaF3, 72 h, CTG cell viability, read-out: IC50 Ba/F3 BCR-ABL1 Parental
Procedure, shortened: as §1

[5] = biological target: T3, Ba/F3 BCR-ABL1 Y253H/E255K (Homo sapiens, UniProt P00519+P11274, E255K/Y253H); assay: Cell growth inhibitory activity assay (CellTiter-Glo), Ba/F3 BCR-ABL1 Y253H/E255K cells; details: 72 h, CTG cell viability
T3 construct: BCR (N-terminal fusion partner of the oncoprotein); expressed in transfected cells; host or cells: Ba/F3 (lentiviral transduction, monoclonal line)
Procedure: (§2) In this assay, the Celltiter-Glo (CTG) kit provided by Promega was used, and it is a homogeneous cell viability assay method. The cell viability of cultured cells was measured by quantifying ATP. K562 cells were purchased from Nanjing Kebai, product number CBP60529; Ba/F3 parental cells were purchased from RIKEN BRC, product number RCB0805; other cells containing BCR-ABL1 WT, BCR-ABL1 T315I, BCR-ABL1 T315M, BCR-ABL1 Y253H/E255K, BCR-ABL1 E255V/T3151, BCR-ABL1 A424T, BCR-ABL1 A337V, BCR-ABL1 P465S, BCR-ABL1 V468F, and BCR-ABL1 I502L were all monoclonal engineered cell lines obtained by transducting Ba/F3 parental cells with the lentivirus plasmids containing WT or corresponding mutated BCR-ABL1.
(§3) The steps of cell viability assay are as follows: • a) Cells in logarithmic growth phase were collected. Cell suspension was prepared and the cells were counted. Concentration of the cells was calculated. • b) The cell suspension was diluted to the required concentration and then added to the middle wells of a 96-well plate, and PBS was added to the edge wells. The wells with no cells and only culture medium were used as blank controls. • c) In addition to the cell plate used for compound analysis, another 96-well plate was prepared as a T0 plate, and 3-6 blank wells and 3-6 cell wells were added. The next day, CTG was used to test the cell viability as the T0 viability value of the cells. • d) The cell plate was incubated at 37 °C in a 5% CO2 incubator overnight. • e) The next day, each concentration of a compound subjected to a gradient dilution was added, and the cell plate was incubated at 37 °C in a 5% CO2 incubator for 72 h. The wells with no compound and only 0.5% DMSO were used as positive controls for cell growth. • f) CTG reagent (CellTiter-Glo kit) was added according to the manufacturer's instructions to test the cell viability value. • g) The plate was read using Biotek cytation3.0 microplate reader and the data were exported. • h) IC50 was calculated using GraphPad Prism 7.0 software.
(§4) The IC50 (half-maximal inhibitory concentration) of the compound was obtained using the following nonlinear fitting formula: Y = Bottom + (Top−Bottom)/(1+10^(∧)((LogIC50−X)*HillSlope)) [formula] • X: Log value of the compound concentration • Y: Inhibition rate (% inhibition) • Top: Maximum response • Bottom: Baseline response • HillSlope: Slope of the curve
(§5) The formula for calculating cell inhibition rate (inhibition rate %) was: [formula]

[6] = biological target: T4, Ba/F3 BCR-ABL1 T315M (Homo sapiens, UniProt P00519+P11274, T315M); assay: Cell growth inhibitory activity assay (CellTiter-Glo), Ba/F3 BCR-ABL1 T315M cells; details: 72 h, CTG cell viability
T4 construct: BCR (N-terminal fusion partner of the oncoprotein); expressed in transfected cells; host or cells: Ba/F3 (lentiviral transduction, monoclonal line)
Procedure: as §2, §3, §4, §5

[7] = biological target: T5, Ba/F3 BCR-ABL1 E255V/T315I (Homo sapiens, UniProt P00519+P11274, E255V/T315I); assay: Cell growth inhibitory activity assay (CellTiter-Glo), Ba/F3 BCR-ABL1 E255V/T315I cells; details: 72 h, CTG cell viability
T5 construct: BCR (N-terminal fusion partner of the oncoprotein); expressed in transfected cells; host or cells: Ba/F3 (lentiviral transduction, monoclonal line)
Procedure: as §2, §3, §4, §5

[8] = biological target: T6, Ba/F3 BCR-ABL1 A424T (Homo sapiens, UniProt P00519+P11274, A424T); assay: Cell growth inhibitory activity assay (CellTiter-Glo), Ba/F3 BCR-ABL1 A424T cells; details: 72 h, CTG cell viability
T6 construct: BCR (N-terminal fusion partner of the oncoprotein); expressed in transfected cells; host or cells: Ba/F3 (lentiviral transduction, monoclonal line)
Procedure: as §2, §3, §4, §5

[9] = biological target: T7, Ba/F3 BCR-ABL1 A337V (Homo sapiens, UniProt P00519+P11274, A337V); assay: Cell growth inhibitory activity assay (CellTiter-Glo), Ba/F3 BCR-ABL1 A337V cells; details: 72 h, CTG cell viability
T7 construct: BCR (N-terminal fusion partner of the oncoprotein); expressed in transfected cells; host or cells: Ba/F3 (lentiviral transduction, monoclonal line)
Procedure: as §2, §3, §4, §5

[10] = biological target: T8, Ba/F3 BCR-ABL1 P465S (Homo sapiens, UniProt P00519+P11274, P465S); assay: Cell growth inhibitory activity assay (CellTiter-Glo), Ba/F3 BCR-ABL1 P465S cells; details: 72 h, CTG cell viability
T8 construct: BCR (N-terminal fusion partner of the oncoprotein); expressed in transfected cells; host or cells: Ba/F3 (lentiviral transduction, monoclonal line)
Procedure: as §2, §3, §4, §5

[11] = biological target: T9, Ba/F3 BCR-ABL1 V468F (Homo sapiens, UniProt P00519+P11274, V468F); assay: Cell growth inhibitory activity assay (CellTiter-Glo), Ba/F3 BCR-ABL1 V468F cells; details: 72 h, CTG cell viability
T9 construct: BCR (N-terminal fusion partner of the oncoprotein); expressed in transfected cells; host or cells: Ba/F3 (lentiviral transduction, monoclonal line)
Procedure: as §2, §3, §4, §5

[12] = biological target: T10, Ba/F3 BCR-ABL1 I502L (Homo sapiens, UniProt P00519+P11274, I502L); assay: Cell growth inhibitory activity assay (CellTiter-Glo), Ba/F3 BCR-ABL1 I502L cells; details: 72 h, CTG cell viability
T10 construct: BCR (N-terminal fusion partner of the oncoprotein); expressed in transfected cells; host or cells: Ba/F3 (lentiviral transduction, monoclonal line)
Procedure: as §2, §3, §4, §5

SMILES	IC50 [1]	IC50 [2]	IC50 [3]	IC50 [4]	IC50 [5]	IC50 [6]	IC50 [7]	IC50 [8]	IC50 [9]	IC50 [10]	IC50 [11]	IC50 [12]
C[C@@H]1COCc2nc3cc(C(=O)Nc4ccc(OC(F)(F)Cl)cc4)cc(-c4cnc5c(c4)-c4nn(-c6ccncn6)cc4C5)c3n21 [T-67, (R)-N-(4-(chlorodifluoromethoxy)phenyl)-4-methyl-6-(2-(pyrimidin-4-yl)-2,4-dihydropyrazolo[3',4':3,4]cyclopenta[1,2-b]pyridin-7-yl)-3,4-dihydro-1H-benzo[4,5]imidazo[2,1-c][1,4]oxazine-8-carboxamide]	≤ 5 nM	≤ 5 nM	≤ 5 nM	> 1000 nM	≤ 5 nM							
[2H]C([2H])([2H])C([2H])(n1cc2c(n1)-c1cc(-c3cc(C(=O)Nc4ccc(OC(F)(F)Cl)cc4)cc4nc5n(c34)[C@H](C)COC5)cnc1C2)C([2H])([2H])[2H] [T-54]	≤ 5 nM	≤ 5 nM	≤ 5 nM	> 1000 nM	≤ 5 nM	> 1000 nM	≤ 5 nM	5 to 50 nM	5 to 50 nM	5 to 50 nM	5 to 50 nM	5 to 50 nM
CC(C)n1cc2c(n1)-c1cc(-c3cc(C(=O)Nc4ccc(OC(F)(F)Cl)cc4)cc4nc5n(c34)[C@H](C)COC5)cnc1C2 [T-48, (R)-N-(4-(chlorodifluoromethoxy)phenyl)-6-(2-isopropyl-2,4-dihydropyrazolo[3',4':3,4]cyclopenta[1,2-b]pyridin-7-yl)-4-methyl-3,4-dihydro-1H-benzo[4,5]imidazo[2,1-c][1,4]oxazine-8-carboxamide]	≤ 5 nM	≤ 5 nM	≤ 5 nM	> 1000 nM	≤ 5 nM	> 1000 nM	≤ 5 nM	5 to 50 nM	5 to 50 nM	50 to 1000 nM	5 to 50 nM	5 to 50 nM
C[C@@H]1COCc2nc3cc(C(=O)Nc4ccc(OC(F)(F)Cl)cc4)cc(-c4cnc5c(c4)C(=O)N(C4CC4)C5)c3n21 [T-25, (R)-N-(4-(chlorodifluoromethoxy)phenyl)-6-(6-cyclopropyl-5-oxo-6,7-dihydro-5H-pyrrolo[3,4-b]pyridin-3-yl)-4-methyl-3,4-dihydro-1H-benzo[4,5]imidazo[2,1-c][1,4]oxazine-8-carboxamide]	≤ 5 nM	≤ 5 nM	5 to 50 nM	> 1000 nM	5 to 50 nM	> 1000 nM	5 to 50 nM	5 to 50 nM				
C[C@@H]1COCc2nc3cc(C(=O)Nc4ccc(OC(F)(F)Cl)cc4)cc(-c4cnc5c(c4)-c4nn(-c6ncc(F)cn6)cc4C5)c3n21 [T-68, (R)-N-(4-(chlorodifluoromethoxy)phenyl)-6-(2-(5-fluoropyrimidin-2-yl)-2,4-dihydropyrazolo[3',4':3,4]cyclopenta[1,2-b]pyridin-7-yl)-4-methyl-3,4-dihydro-1H-benzo[4,5]imidazo[2,1-c][1,4]oxazine-8-carboxamide]	≤ 5 nM	≤ 5 nM	≤ 5 nM	> 1000 nM		≤ 5 nM		≤ 5 nM	5 to 50 nM	5 to 50 nM	5 to 50 nM	≤ 5 nM
